31 compounds from patent US5487990A (The General Hospital Corporation, priority 1992, dated 1996) can be followed below.

Test [1] addresses T1, Acetyl-CoA Hydrolase from S. cerevisiae (Saccharomyces cerevisiae, UniProt P32316).
T1 sequence (P32316 1-526): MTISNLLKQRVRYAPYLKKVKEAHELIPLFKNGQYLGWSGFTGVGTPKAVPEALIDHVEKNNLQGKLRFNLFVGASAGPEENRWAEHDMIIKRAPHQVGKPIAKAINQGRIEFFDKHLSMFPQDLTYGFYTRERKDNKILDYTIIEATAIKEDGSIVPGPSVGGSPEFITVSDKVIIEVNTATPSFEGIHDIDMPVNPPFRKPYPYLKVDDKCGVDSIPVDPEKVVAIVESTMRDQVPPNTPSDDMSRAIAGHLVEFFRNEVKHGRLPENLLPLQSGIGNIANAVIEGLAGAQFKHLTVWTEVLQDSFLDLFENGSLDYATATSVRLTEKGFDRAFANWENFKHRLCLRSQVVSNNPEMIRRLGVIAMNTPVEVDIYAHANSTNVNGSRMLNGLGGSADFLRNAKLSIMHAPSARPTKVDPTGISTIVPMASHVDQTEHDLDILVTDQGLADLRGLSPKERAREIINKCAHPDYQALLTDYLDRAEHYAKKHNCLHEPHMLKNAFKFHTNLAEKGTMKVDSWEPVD
Kind of test: biochemical. Particulars: for remaining activity at 100 µM / remaining activity at 1000 µM / remaining activity at 10000 µM / remaining activity at 5000 µM: pH 7.4, read-out: Enzyme Activity (%); for Enzyme Activity (%): 100 mM potassium phosphate, pH 7.4, None = 100.
Experimental: The assay mixture was incubated at 30° C. for 0.30 s, 1 min, 2 min, 3 min, 4 min, and 5 min. The reaction was stopped by adding 20 μl of 10 M acetic acid. The sample was evaporated by N2 stream at 30° C. to dryness in a fume hood, dissolved in 100 μl H2 O, and transferred to a scintillation vial containing 10 ml Ready-Solv EP scintillation cocktail. The sample tube was washed twice with 100 μl H2 O, each wash was transferred to the scintillation vial, and the radioactivity was determined by scintillation counting for 1 min.
nucleotides and divalent cations in 100 mM potassium phosphate, pH 7.4.
The enzyme activity was determined under standard radioactive assay
conditions using ACTH (1-24) (N = 3), as described in the Examples.
acylCoA in 100 mM phosphate buffer, pH 7.4.

Test [2] concerns the target T1, Acetyl-CoA Hydrolase from S. cerevisiae. Kind of test: biochemical. The format is biochemical. Particulars: for remaining activity at 1000 µM / remaining activity at 10000 µM / remaining activity at 500 µM / remaining activity at 5000 µM: read-out: Enzyme Activity (%).
The target is the same in test [3]. In words: Substrate specificity, colorimetric assay (DNTB, A412). It is filed as biochemical. Particulars: read-out: Relative Activity (%).

Several values for one entry are separate records, joined by “and”; a condition that tells them apart may be missing. Equal entries are not always repeated. Entries after “also recorded” stand apart in the source; their conditions may differ. Where two headings read alike, the source gives them in different places.

For `NC(=O)c1ccc[n+]([C@@H]2O[C@H](COP(=O)([O-])OP(=O)(O)OC[C@H]3O[C@@H](n4cnc5c(N)ncnc54)[C@H](O)[C@@H]3O)[C@@H](O)[C@H]2O)c1` [βNAD], in test [1], the remaining activity at 100 µM is 100%, the remaining activity at 1000 µM was determined as 98% and the remaining activity at 10000 µM turned out to be 95%.
As for `O=S(=O)([O-])[O-].[Cu+2]` [CuSO4], the figures for the “Enzyme Activity (%)” value in test [1] (addition 1 mM) and in test [1] (addition 10 mM) were 94% and 89%, respectively.
For the compound `NC(=O)CI` [IAM, iodoacetamide], the “effect on enzyme activity (in words)” value in test [2] is given as “no effect; also recorded: partially inactivated”. Besides, in test [2] (0.25 h), the remaining activity at 1000 µM came to 97% and the remaining activity at 10000 µM was 85%.
As for `NO` [hydroxylamine], in test [2] (depc-inactivated acetyl-coa hydrolase, 480 min, 250000 µM), the “original enzyme activity recovered” value is reported as “≈ 55%”.
`[Cl-].[Cl-].[Co+2]` [CoCl2]: the “Enzyme Activity (%)” value in test [1] (addition 1 mM) is on record as 86%; in test [1] (addition 10 mM), 51%.
The matching figures for `[Ca+2].[Cl-].[Cl-]` [CaCl2]: 97% and 84%.
In the case of `CCCCCCCCCCCCCC(=O)SCCNC(=O)CCNC(=O)[C@H](O)C(C)(C)COP(=O)(O)OP(=O)(O)OC[C@H]1O[C@@H](n2cnc3c(N)ncnc32)[C@H](O)[C@@H]1OP(=O)(O)O` [Myristoyl-CoA], in test [1], the remaining activity at 100 µM worked out at 93%, the remaining activity at 1000 µM amounted to 83% and the remaining activity at 5000 µM turned out to be 52%. For the same compound, in test [3], the activity at 250 µM stood at 3%.
Turning to `[Cl][Mn][Cl]` [MnCl2], the “Enzyme Activity (%)” value is recorded as 84% in test [1] (addition 1 mM) and 64% in test [1] (addition 10 mM).
`NC(=O)C1=CN([C@@H]2O[C@H](COP(=O)(O)OP(=O)(O)OC[C@H]3O[C@@H](n4cnc5c(N)ncnc54)[C@H](OP(=O)(O)O)[C@@H]3O)[C@@H](O)[C@H]2O)C=CC1` [βNADPH]: in test [1], the remaining activity at 100 µM is 99%, the remaining activity at 1000 µM came out at 98% and the remaining activity at 10000 µM is 96%.
As to `CC(C)(COP(=O)(O)OP(=O)(O)OC[C@H]1O[C@@H](n2cnc3c(N)ncnc32)[C@H](O)[C@@H]1OP(=O)(O)O)[C@@H](O)C(=O)NCCC(=O)NCCSC(=O)CC(=O)O` [Malonyl-CoA], in test [1], the remaining activity at 100 µM worked out at 93%, the remaining activity at 1000 µM was determined as 83% and the remaining activity at 5000 µM is 52%. The activity at 250 µM in test [3] is 1%.
Regarding `O=C(O)c1cc[c]([Hg][Cl])cc1` [pCMB, p-chloromercuribenzoate], the “Enzyme Activity (%)” value in test [2] is 102% and 88%.
In the case of `OCCS` [2-mercaptoethanol], the “inactivation by chemical modification (in words)” value in test [2] was “did not affect enzyme activity”. In addition, the remaining activity at 10000 µM in test [2] (0.25 h) came to 101%.
The matching figures for `O[C@@H](CS)[C@@H](O)CS` (relative stereo) [DTT]: “did not affect enzyme activity” and 104%.
Regarding `[Cl][Cd][Cl]` [CdCl2], the “Enzyme Activity (%)” value in test [1] (addition 1 mM) was determined as 91%; in test [1] (addition 10 mM), 48%.
Consider `CCOC(=O)OC(=O)OCC` [DEPC, diethyl pyrocarbonate], for which the “inactivation by chemical modification (in words)” value in test [2] was “nearly complete inactivation; also recorded: inactivated”. Further, in test [2] (0.25 h), the remaining activity at 500 µM came to 19% and the remaining activity at 5000 µM turned out to be 3%.
Turning to `O=C1CCC(=O)N1Br` [NBS, N-bromosuccinimide], in test [2], the “inactivation of the enzyme (in words)” value was “complete inactivation”. In addition, in test [2] (0.25 h), the remaining activity at 500 µM stood at 30% and the remaining activity at 5000 µM turned out to be 2%. Moreover, the inhibition at 500 µM in test [2] (0.25 h, read-out: inactivation of the enzyme) was 70%.
On to `CCN1C(=O)C=CC1=O` [NEM, N-ethylmaleimide], for which, in test [2] (0.25 h), the remaining activity at 1000 µM is 94% and the remaining activity at 10000 µM amounted to 52%.
As to `C[S+](C)Cc1cc([N+](=O)[O-])ccc1O.[Br-]` [HNBS(CH3)2 --Br, dimethyl-(2-hydroxy-5-nitrobenzyl)sulfonium bromide], in test [2], the “inactivation by chemical modification (in words)” value is recorded as “partially inactivated”. In test [2] (0.25 h), the remaining activity at 1000 µM was 84% and the remaining activity at 10000 µM was 71%.
Take `CCCC(=O)SCCNC(=O)CCNC(=O)[C@H](O)C(C)(C)COP(=O)(O)OP(=O)(O)OC[C@H]1O[C@@H](n2cnc3c(N)ncnc32)[C@H](O)[C@@H]1OP(=O)(O)O` [Butyryl-CoA]: in test [1], the remaining activity at 100 µM turned out to be 95%, the remaining activity at 1000 µM worked out at 86% and the remaining activity at 5000 µM stood at 62%. In addition, the activity at 250 µM in test [3] amounted to 4%.
As for `[Cl-].[Cl-].[Mg+2]` [MgCl2], the “Enzyme Activity (%)” value came to 95% in test [1] (addition 1 mM) and 72% in test [1] (addition 10 mM).
`O=C1CCC(=O)O1` [Succinic anhydride]: the “effect on enzyme activity (in words)” value in test [2] is recorded as “no effect; also recorded: partial inactivation”. In test [2] (0.25 h), the remaining activity at 1000 µM is 95% and the remaining activity at 10000 µM worked out at 79%.
Consider `O=S(=O)([O-])[O-].[Fe+2]` [FeSO4], for which the “Enzyme Activity (%)” value stood at 98% in test [1] (addition 1 mM) and 88% in test [1] (addition 10 mM).
As to `CCC(=O)SCCNC(=O)CCNC(=O)[C@H](O)C(C)(C)COP(=O)(O)OP(=O)(O)OC[C@H]1O[C@@H](n2cnc3c(N)ncnc32)[C@H](O)[C@@H]1OP(=O)(O)O` [Propionyl-CoA], in test [1], the remaining activity at 100 µM stood at 92%, the remaining activity at 1000 µM was 89% and the remaining activity at 5000 µM was found to be 72%. In addition, in test [3], the activity at 250 µM worked out at 9%.
Take `O=S(=O)([O-])[O-].[Mg+2]` [MgSO4]: the “Enzyme Activity (%)” value in test [1] (addition 1 mM) is on record as 98%; in test [1] (addition 10 mM), 75%.
As to `Nc1ncnc2c1ncn2[C@@H]1O[C@H](COP(=O)(O)O)[C@@H](O)[C@H]1O` [AMP], in test [1], the remaining activity at 100 µM was found to be 96%, the remaining activity at 1000 µM came out at 89% and the remaining activity at 10000 µM came to 81%.
Consider `O=C(O)CI` [IAA, iodoacetic acid], for which, in test [2] (0.25 h), the remaining activity at 1000 µM stood at 99% and the remaining activity at 10000 µM was 89%.
In the case of `CC(=O)CC(=O)SCCNC(=O)CCNC(=O)[C@H](O)C(C)(C)COP(=O)(O)OP(=O)(O)OC[C@H]1O[C@@H](n2cnc3c(N)ncnc32)[C@H](O)[C@@H]1OP(=O)(O)O` [Acetoacetyl-CoA], in test [1], the remaining activity at 100 µM was found to be 98%, the remaining activity at 1000 µM was 92% and the remaining activity at 5000 µM came to 90%. Moreover, the activity at 250 µM in test [3] worked out at 5%.
For `CC(=O)n1ccnc1` [N-acetylimidazole], the “effect on enzyme activity (in words)” value in test [2] was “caused inactivation”. Moreover, in test [2] (0.25 h), the remaining activity at 1000 µM came to 101% and the remaining activity at 10000 µM stood at 67%.
Regarding `O=S(=O)([O-])[O-].[Zn+2]` [ZnSO4], the “Enzyme Activity (%)” value is given as 88% in test [1] (addition 1 mM) and 25% in test [1] (addition 10 mM).
With `CC(C)(COP(=O)(O)OP(=O)(O)OC[C@H]1O[C@@H](n2cnc3c(N)ncnc32)[C@H](O)[C@@H]1OP(=O)(O)O)[C@@H](O)C(=O)NCCC(=O)NCCSC(=O)CCC(=O)O` [Succinyl-CoA], in test [1], the remaining activity at 100 µM turned out to be 92%, the remaining activity at 1000 µM worked out at 79% and the remaining activity at 5000 µM worked out at 56%. In test [3], the activity at 250 µM is 8%.
As to `[Zn+2]` [Zn^2+], the “effect on yeast enzyme activity (in words)” value in test [1] (concentration not given) is on record as “most potent inhibitor”.
